# Values of other authors in US20030185915A1, “Synergetic composition for the treatment of psoriasis and other skin disorders and method therefor” (priority 2002, published 2003).
# Test system: psoriatic arthritis
# Settings: usually within four to eight weeks
smiles,measurement,value
O=C(O)c1cc(/N=N/c2ccc(S(=O)(=O)Nc3ccccn3)cc2)ccc1O [Sulfasalazine],fraction of PA patients responding rapidly,Approximately one-third
